Experimental data: PMC3095316, “Differential expression pattern of an acidic 9/13-lipoxygenase in flower opening and senescence and in leaf response to phloem feeders in the tea plant” (BMC Plant Biology, 2010)
Like-named read-outs stand apart in the source and are kept apart here.

Molecular target: T1, CsLOX1 (9/13-CsLOX1) (Camellia sinensis, UniProt A8W7J7)
T1 construct: gene lox1
T1 sequence (A8W7J7 1-861): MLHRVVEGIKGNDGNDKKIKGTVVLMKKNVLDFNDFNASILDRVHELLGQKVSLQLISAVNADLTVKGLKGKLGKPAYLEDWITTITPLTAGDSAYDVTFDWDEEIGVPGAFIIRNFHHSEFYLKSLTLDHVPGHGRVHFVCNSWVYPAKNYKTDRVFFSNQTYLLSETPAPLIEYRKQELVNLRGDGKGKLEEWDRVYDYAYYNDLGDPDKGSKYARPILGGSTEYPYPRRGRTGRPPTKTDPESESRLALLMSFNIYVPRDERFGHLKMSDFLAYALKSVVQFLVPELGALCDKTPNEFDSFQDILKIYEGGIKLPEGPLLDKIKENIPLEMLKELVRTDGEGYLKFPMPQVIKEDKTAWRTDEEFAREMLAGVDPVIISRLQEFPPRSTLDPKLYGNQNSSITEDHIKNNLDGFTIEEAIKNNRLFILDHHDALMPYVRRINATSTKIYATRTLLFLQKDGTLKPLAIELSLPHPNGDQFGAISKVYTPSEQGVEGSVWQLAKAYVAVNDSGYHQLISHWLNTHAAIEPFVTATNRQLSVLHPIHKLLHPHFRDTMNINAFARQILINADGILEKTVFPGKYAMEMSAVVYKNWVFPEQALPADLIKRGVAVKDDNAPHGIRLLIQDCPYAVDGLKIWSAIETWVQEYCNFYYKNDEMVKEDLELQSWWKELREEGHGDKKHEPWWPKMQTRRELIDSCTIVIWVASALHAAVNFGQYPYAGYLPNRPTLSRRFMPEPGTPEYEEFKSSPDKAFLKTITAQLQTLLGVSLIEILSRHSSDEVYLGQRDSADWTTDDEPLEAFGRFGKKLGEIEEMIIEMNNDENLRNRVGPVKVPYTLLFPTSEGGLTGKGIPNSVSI
Settings: co-substrate O2, substrate 75-600 μM, pH and temperature of the kinetics not stated (optimum pH 3.6, 25°C)

SMILES	Km (linolenic acid isomer not printed (alpha taken from jasmonate context))	Km
CC/C=C\C/C=C\C/C=C\CCCCCCCC(=O)O [linolenic acid]	32.9 µM	–
CCCCC/C=C\C/C=C\CCCCCCCC(=O)O [linoleic acid]	–	141 µM
